In paper PMC11173533, “Baicalin and Baicalein Enhance Cytotoxicity, Proapoptotic Activity, and Genotoxicity of Doxorubicin and Docetaxel in MCF-7 Breast Cancer Cells” (Molecules, 2024):

How the values were obtained:
Type in all cases: cell-based, human
[1] = test system: MCF-7 cells; assay: MTT cell viability assay on MCF-7 cells; settings: for IC50: Homo sapiens, MCF7, 2 h incubation, breast cancer cells, used for both cell lines, read-out: Drug IC50 concentration from MTT survival curves; for Concentrations giving statistically significant decrease in survival: MCF-7, 2 h incubation with anticancer drug, MTT
Method: (§1) Unless otherwise indicated, in experiments, cells were seeded at an appropriate density for the specific assay into 96-well plates or Petri dishes. They were then incubated in standard culture conditions, which included a temperature of 37 °C, 100% relative humidity, and a 5% CO2 incubator. […] After treatment, the cells were washed with PBS and, depending on the experiment, immediately used for measurement or cultured in a fresh medium for 24 or 48 h. Control cells were treated with a corresponding volume of PBS. Additional controls for solvents were also performed.
(§2) The principle of the method is a measurement of the absorbance of formazan, a product of the reduction of the water-soluble tetrazolium salt (MTT) by NADPH-dependent cellular oxidoreductases (mainly succinate dehydrogenase) in living cells. Formazan is insoluble in water and precipitates as purple crystals. The amount of formazan is proportional to the number of living and metabolically active cells.
(§3) After treatment, the cells were washed with PBS and cultured in a fresh medium for 48 h. Subsequently, the medium was aspirated, and an aliquot of 50 µL of 0.05 mg/mL MTT solution was added to each microplate well for 3 h. The formazan crystals were dissolved in dimethyl sulfoxide (DMSO), and the absorbance was measured at a wavelength of λ = 580 nm. The percentage of viable cells was calculated by comparing the absorbance value of the test samples to the absorbance value of the control, taking the absorbance of the control as 100%.

[2] = test system: HUVEC-ST cells; assay: MTT cell viability assay on HUVEC-ST cells; settings: HUVEC-ST, MTT
Method: as §1, §2, §3

[3] = test system: MCF-7 cells; assay: Annexin V FITC/propidium iodide double staining in MCF-7 cells; settings: for Viable cells: docetaxel IC50 alone
Method: as §1
(§4) This assay is based on the principle that, in viable cells, phosphatidylserine (PS) is located in the inner membrane (side facing the cytoplasm). However, upon induction of apoptosis, PS is translocated to the outer membrane (PS also appears on the necrotic cell surface). The exposed phosphatidylserine can be detected by protein Annexin V stained with FITC dye. The addition of propidium iodide (PI) enabled necrotic cells to be distinguished. Thus, this method is convenient for counting and differentiating live cells from those undergoing apoptosis or necrosis.
(§5) The analysis was performed according to the manufacturer’s protocol on cells immediately after the treatment and 24 or 48 h postincubation. Samples were analyzed using the flow cytometer LSR® II from Becton Dickinson (San Jose, CA, USA) using an argon laser with a wavelength of λ = 488 nm.

[4] = test system: HUVEC-ST cells; assay: Annexin V FITC/propidium iodide double staining in HUVEC-ST cells; settings: docetaxel IC50 alone
Method: as §1, §4, §5

[5] = test system: MCF-7 cells; assay: Mitochondrial membrane potential (JC-1) in MCF-7 cells; settings: anticancer drug IC50 alone 2 h, control = 100%
Method: as §1
(§6) The mitochondrial membrane potential was measured with the membrane-permeant JC-1 fluorescent probe. […] Thus, the measurement of the ratio of JC-1 dimer to monomer fluorescence can be used for estimating changes in mitochondrial membrane potential (ΔΨm).
(§7) The cells were then incubated in complete darkness for 30 min at 37 °C. After incubation, the cells were washed to remove the dye and suspended in fresh HBSS solution. Finally, the fluorescence intensity was measured using a Cary Eclipse spectrofluorometer (Varian, Inc.) at λex/em = 475 nm/530 nm for monomers and at λex/em = 535 nm/590 nm for dimers. Subsequently, the ratio of the fluorescence intensities at 530 nm/590 nm was calculated. The mitochondrial potential in both cell lines was measured immediately after incubation with investigated compounds. The results are expressed as a percentage of the control, considered 100%.

[6] = test system: HUVEC-ST cells; assay: Mitochondrial membrane potential (JC-1) in HUVEC-ST cells; settings: anticancer drug IC50 alone 2 h, control = 100%
Method: as §1, §6, §7

[7] = Annexin V FITC/propidium iodide double staining in HUVEC-ST cells; settings: human, HUVEC-ST cells, doxorubicin IC50 alone, longest postincubation time (48 h), read-out: Viable cells
Method: as §1, §4, §5

[8] = test system: HUVEC-ST cells; assay: Alkaline comet assay in HUVEC-ST cells; settings: doxorubicin IC50 alone, 48 h after incubation
Method: as §1
The comet assay, also known as the single-cell gel electrophoresis assay, is a highly sensitive and versatile method for measuring single- and double-stranded DNA breaks. The assay uses an electric field to move negatively charged DNA fragments through an agarose gel. The amount of migration reflects the level of DNA damage in the cells.
The analysis was performed under alkaline conditions, according to the method of Singh et al., on cells immediately after the treatment and 24 or 48 h postincubation. A suspension of cells was mixed with low-melting-point agarose (LMP type XI) and spread onto a microscope glass slide previously coated with standard melting point agarose (NMP type I). After 2 h of cells lysis in a buffer containing (2.5 mol/L NaCl, 100 mmol/L Na2-EDTA, 10 mmol/L TRIS, 1% Triton X-100), DNA unwinding and electrophoresis were carried out in a buffer containing (1 mmol/L Na2-EDTA, 300 mmol/L NaOH) and (29 V, 30 mA). Before analysis, the slides were stained with DAPI solution (2 μg/mL). One hundred randomly chosen cells were analyzed on each slide using a fluorescence microscope Zeiss Axio Scope A1 (Carl Zeiss, Oberkochen, Germany) with a video camera connected to the image-analysis system Lucia-Comet v. 7.60 (Laboratory Imaging, Praha, Czech Republic).

Compound	IC50 [1] [nM]	Concentrations giving statistically significant decrease in survival [1] [µmol/L]	Decrease in survival at highest concentration ([2]; 6 µmol/L, 2 h incubation) [%]	Viable cells ([3]; 24 h after incubation) [%]	Viable cells ([3]; 48 h after incubation) [%]	AV+/PI+ cells ([4]; 24 h after incubation) [%]	AV+/PI+ cells ([4]; longest postincubation time (48 h)) [%]	Mitochondrial membrane potential ΔΨm, % of control [5] [%]	Mitochondrial membrane potential ΔΨm, % of control [6] [%]	Viable cells ([1]; MCF-7, doxorubicin 3 µmol/L used alone) [%]	Concentrations giving statistically significant decrease in survival ([2]; 2 h incubation with anticancer drug) [µmol/L]	AV+/PI− cells (undergoing apoptosis) ([3]; doxorubicin IC50 alone, 48 h post-incubation) [%]	viability [7] [%]	DNA in the comet tail [8] [%]
CC(=O)O[C@@]12CO[C@@H]1C[C@H](O)[C@@]1(C)C(=O)[C@H](O)C3=C(C)[C@@H](OC(=O)[C@H](O)[C@@H](NC(=O)OC(C)(C)C)c4ccccc4)C[C@@](O)([C@@H](OC(=O)c4ccccc4)[C@H]21)C3(C)C [docetaxel]	100	≥ 0.02	20	53	43	23	26	65	54					
COc1cccc2c1C(=O)c1c(O)c3c(c(O)c1C2=O)C[C@@](O)(C(=O)CO)C[C@@H]3O[C@H]1C[C@H](N)[C@H](O)[C@H](C)O1 [doxorubicin, Doxorubicin]	3000	≥ 1						57	73	54	≥ 0.5	12	47	10
